Experimental data published in patent US20260272908A1 (VANDERBILT UNIVERSITY, priority 2023, published 2026).
Entries after “also recorded” stand apart in the source; their conditions may differ.

Assays:
[1] = system: Meta3 organoids; assay: Meta3 metaplastic organoid growth and survival (organoid diameter, phase-contrast); assay type: cell-based, mouse; conditions: trametinib 1 μM, pyrvinium 100 nM, 3 days
Description: All experiments were repeated at least three times.
All experiments were performed at least in triplicate.

[2] = system: p-ERK; assay: Western blot for phospho-ERK in hPCO lines; assay type: cell-based, human
Text: FIG. 7C-7D show Western blot analysis for p-STAT3 and p-ERK in three Pyr-resistant hPCO lines after Pyr treatment (FIG. 7C) and ratios of p-STAT3/t-STAT3 and p-ERK/t-ERK (FIG. 7D). FIG. 7E-7F show a Western blot for basal p-STAT3 and p-ERK levels in Pyr-sensitive and Pyr-resistant hPCO lines (FIG. 7E), and ratios of p-STAT3/t-STAT3 and p-ERK/t-ERK (FIG. 7F). FIG. 7G-7H show a Western blot for p-STAT3 and p-ERK in hPCO-3 after treatment of trametinib (Tra), Pyr, and their combinations (FIG. 7G), and ratios of p-STAT3/t-STAT3 and p-ERK/t-ERK (FIG. 7H). […] FIG. 7K-7L show phase-contrast images of Pyr-sensitive hPCO-2 treated with DMSO, Pyr, STAT3-IN-1, Sttatic, and Cryptotanshinone (CPT) for 6 days (FIG. 7K) and quantitation of organoid diameters before and after treatment (FIG. 7L). Mean±standard deviation. […]
(§1) Total proteins were extracted from organoids using radioimmunoprecipitation assay buffer (10 mmol/L Tris-HC, pH 7.2, 150 mmol/L NaCl, 5 mmol/L EDTA, 0.1% sodium dodecyl sulfate, 1.0% Triton X-100, 1% deoxycholate) with protease inhibitors. The protein concentration was measured The Bio-Rad Protein Assay (Bio-Rad Laboratories, Hercules, CA). […] After washes with TBS-T, chemiluminescence was detected with an Amersham Imager 680 instrument (GE Healthcare) after 1 mL of the SuperSignal West Femto Maximum Sensitivity Substrate (ThermoFisher) was applied to the membranes.

[3] = system: Meta4 organoids; conditions: pyrvinium, 1 day
[4] = system: phospho-ERK (p-ERK); assay: Western blot for phospho-ERK in Meta3 and Meta4 organoids; assay type: cell-based, mouse
Description: (§2) FIG. 3C-3D show the Western blot analysis for p-STAT3 and p-ERK in Meta3 and Meta4 organoids (FIG. 3C) and ratios of p-STAT3/total STAT3 and p-ERK/total ERK (FIG. 3D). […] FIG. 3F-3G show phase-contrast images of Meta4 organoids treated with DMSO, Pyr (100 nM), STAT3-IN-1 (1 μM), Stattic (2 μM), and Cryptotanshinone (CPT) (5 μM) for 3 days (FIG. 3F), and quantitation of organoid diameters before and after treatment (FIG. 3G). FIG. 3H-3I show phase-contrast images of Meta4 organoids treated with DMSO, trametinib (Tra), STAT3-IN-1, combination of Tra and STAT3-IN-1, and Pyr, for 3 days (FIG. 3H), and quantitation of organoid diameters before and after treatment (FIG. 3I). FIG. 3J-3K show western blot for p-STAT3 and p-ERK after treatment of Tra, Pyr, and SSTC3 (FIG. 3J) and ratios of p-STAT3/t-STAT3 and p-ERK/t-ERK (FIG. 3K). […] Relative quantification of each gene expression level was normalized to GAPDH gene expression. Shading scale represents the mRNA expression values. FIG. 3M show representative mRNA of Pim-1 and Cyclin-B1 after treatment. Mean±standard deviation. […] Scale bar=500 μM.
as §1, with “CA). 5 to 10 μg of total protein was loaded onto 12.5% or 10% sodium dodecyl sulfate/polyacrylamide gel electrophoresis (PAGE) and transferred onto polyvinylidene difluoride membranes (Millipore, Billerica, MA).” for “CA).”

[5] = system: CD133 and CD166; assay: qRT-PCR of dysplastic stem cell markers in Meta4 organoids; assay type: cell-based, mouse; conditions: pyrvinium-treated vs DMSO
Description: FIG. 4D-4E show lusters of dysplastic stem cells (DSCs) differentiated cells or damaged cells in a superimposed UMAP plot (FIG. 4D) and their proportions in DMSO-treated and Pyr-treated Meta4 samples (FIG. 4E).
Total RNAs were extracted from Meta3 or Meta4 organoids using the Trizol (Invitrogen) reagent. cDNAs were synthesized using iScript gDNA clear cDNA synthesis kit (Bio-Rad) and RT-PCR was performed using SsoAdvanced™ Universal SYBR Green supermix (Bio-Rad) and a CFX96 Real-Time PCR Detection System (Bio-Rad). GAPDH, a house keeping gene, was used to normalize gene expression levels. All reactions were performed in triplicate and relative gene expression levels were obtained by the comparative ΔΔCt method using CFX Maestro software (Bio-Rad).

[6] = system: wild-type mice; assay: Histopathology of major organs in wild-type mice; assay type: in vivo, mouse; conditions: 4 mg/L in drinking water, 2 weeks
Description: Hematoxylin and eosin images were obtained from wild-type mice treated with either dimethyl sulfoxide (DMSO) or Pyr (4 mg/L in drinking water) for a duration of 2 weeks. Scale bar=100 μm.
One or two weeks after either DMSO or pyrvinium treatment, gastric mucosa in each group of mice was examined.

[7] = system: phospho-STAT3 (p-STAT3); assay: Western blot for phospho-STAT3 in Meta3 and Meta4 organoids; assay type: cell-based, mouse
Description: as §2
as §1, with “CA). 5 to 10 μg of total protein was loaded onto 12.5% or 10% sodium dodecyl sulfate/polyacrylamide gel electrophoresis (PAGE) and transferred onto polyvinylidene difluoride membranes (Millipore, Billerica, MA).” for “CA).”

SMILES: Cc1cc(/C=C/c2ccc3cc(N(C)C)ccc3[n+]2C)c(C)n1-c1ccccc1 [pyrvinium]
- organoid size compared to control organoids treated with DMSO [1]: significant reduction in size
- p-ERK levels ([2]; three pyrvinium-resistant hPCO lines): no significant differences
- p-ERK levels ([2]; three pyrvinium-sensitive hPCO lines): decreased
- DSC (dysplastic stem cell) subpopulation [3]: not observed
- STAT3-target genes Fos, Fosb, and Jun [3]: downregulated
- binding and transcription regulator activities (PANTHER gene ontology) [3]: decreased
- cells damaged and mostly differentiated cells among treated cells [3]: over 73.9%
- damage-related genes Dusp4, Ddit3 and Areg [3]: upregulated
- phosphorylation of ERK ([4]; Meta3): reduced phosphorylation
- p-ERK levels ([4]; Meta4, 3 days): significant decrease
- CD133 and CD166 gene expression [5]: decreases
- histopathology of major organs (stomach, esophagus, liver, kidney, heart, lung, spleen) [6]: did not induce any noticeable histopathological abnormalities; also recorded: unaffected
- phosphorylation of STAT3^Y705 ([7]; Meta3): reduced phosphorylation
- phosphorylation of STAT3^Y705 ([7]; Meta4, 3 days): significant reduction
